pEC50, pIC50: −log10 of the molar value.
How the values were obtained:
15-PGDH/HPGD = target: T1, 15-PGDH/HPGD (Homo sapiens, UniProt P15428); assay: hPGDH inhibitor screening biochemical assay; conditions: 10 nM enzyme, 15 μM Prostaglandin E2, 0.25 mM NAD, fluorescence ex/em 340/485 nm
T1 construct: purchased R&D System 5660-DH
T1 sequence (P15428 1-266): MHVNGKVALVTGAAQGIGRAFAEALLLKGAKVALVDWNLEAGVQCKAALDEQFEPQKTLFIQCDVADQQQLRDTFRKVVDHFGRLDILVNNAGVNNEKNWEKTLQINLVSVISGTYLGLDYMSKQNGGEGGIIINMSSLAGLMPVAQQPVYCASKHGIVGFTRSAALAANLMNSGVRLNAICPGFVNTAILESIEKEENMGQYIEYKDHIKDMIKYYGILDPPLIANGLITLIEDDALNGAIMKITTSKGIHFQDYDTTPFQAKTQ
Description: A hydroxyprostaglandin dehydrogenase inhibition screening biochemical assay can be performed to assess the synthesized inhibitors provided herein. Provided herein is an exemplary biochemical assay for hPGDH inhibitor screening.
The in vitro biochemical assay can be performed in white, 384 plates in total 20 μl reaction volume consisting of 10 nM of 15-PGDH/HPGD (R&D System #5660-DH), 15 μM Prostaglandin E2 (Sigma, Cat #P5640-10 MG) and 0.25 mM B-Nicotinamide adenine dinucleotide sodium salt (Sigma, Cat #N0632-5G) made in reaction buffer (50 mM Tris-HCl, pH 7.5, 0.01% Tween 20) at 10-point dose response curve for test/tool compounds. Briefly, 5 μl (4×) of compounds solution and 5 μl (final concentration, 10 nM) of enzyme solution is added to white 384 well plates and incubated for 10 mins at 37° C. 5 μl (4×) of Prostaglandin E2 and 5 μl (4×) of β-Nicotinamide adenine dinucleotide sodium salt is added to the wells and incubated for 10 mins at room temperature. Fluorescence is recorded at ex/em=340 nm/485 nm.

A549 = A549 EC50 (cell assay, method not described); assay type: cell-based

`CC1(OC[C@@H](O)c2cnc3c(cnn3-c3ccc(C(=O)O)cc3)c2)CC1` [Compound 92B] was tested, and the pIC50 (15-PGDH/HPGD) was > 7.00 and the pEC50 (A549; Homo sapiens, A549, A549) was > 7.00.
With `CCOC(C)(C)[C@H](O)c1cnc2c(cnn2-c2ccc(C(=O)O)cc2)c1` [Compound 53A] the pIC50 (15-PGDH/HPGD) was 6.00 to 7.00 and the pEC50 (A549; Homo sapiens, A549, A549) was 6.00 to 7.00.
For `O[C@@H](c1cnc2c(cnn2-c2cccc(-c3nnc[nH]3)c2)c1)C1CC2CC2C1` (some centres unmarked) [Compound 50A], the pIC50 (15-PGDH/HPGD) was > 7.00 and the pEC50 (A549; Homo sapiens, A549, A549) was > 7.00.
With `Cc1nn(-c2ccc(C(=O)O)cc2)c2ncc([C@H](O)COC3CC3)cc12` [Compound 126B] the pIC50 (15-PGDH/HPGD) was > 7.00 and the pEC50 (A549; Homo sapiens, A549, A549) was 6.00 to 7.00.
`CCCC(F)(F)[C@@H](O)c1cnc2c(ccn2-c2cccc(-c3nnc[nH]3)c2)n1` [Compound 35A] was tested, and the pIC50 (15-PGDH/HPGD) was > 7.00 and the pEC50 (A549; Homo sapiens, A549, A549) was > 7.00.
In the case of `O[C@H](c1cnc2c(cnn2-c2cccc(-c3nnc[nH]3)c2)c1)C1(OCC(F)F)CC1` [Compound 73A], the pIC50 (15-PGDH/HPGD) was > 7.00 and the pEC50 (A549; Homo sapiens, A549, A549) was 6.00 to 7.00.
In the case of `CC(C)OC[C@@H](O)c1cnc2c(cnn2-c2ccc(CCCC(=O)O)c(F)c2)c1` [Compound 77A], the pIC50 (15-PGDH/HPGD) was > 7.00 and the pEC50 (A549; Homo sapiens, A549, A549) was > 7.00.
In the case of `O=C(O)c1ccc(-n2ncc3cc([C@H](O)COC4CCC4)cnc32)cn1` [Compound 96A], the pIC50 (15-PGDH/HPGD) was > 7.00 and the pEC50 (A549; Homo sapiens, A549, A549) was ≤ 6.00.
With `COC1([C@@H](O)c2cnc3c(cnn3-c3cccc(-c4nnc[nH]4)c3)c2)CC1` [Compound 59A] the pIC50 (15-PGDH/HPGD) was > 7.00 and the pEC50 (A549; Homo sapiens, A549, A549) was 6.00 to 7.00.
`CCOC(C)(C)C(O)c1cnc2c(cnn2-c2cccc(-c3nnc[nH]3)c2)c1` (single isomer, unassigned) [Compound 34B] was tested, and the pIC50 (15-PGDH/HPGD) was 6.00 to 7.00 and the pEC50 (A549; A549) was ≤ 6.00.
`CNC(=O)c1ccc(-n2ncc3cc([C@H](O)COC(C)C)cnc32)cc1` [Compound 67A] was tested, and the pIC50 (15-PGDH/HPGD) was > 7.00 and the pEC50 (A549; Homo sapiens, A549, A549) was > 7.00.
`CCCOC(C)(C)[C@@H](O)c1cnc2c(cnn2-c2cccc(-c3nnc[nH]3)c2)c1` [Compound 57B] was tested, and the pIC50 (15-PGDH/HPGD) was > 7.00 and the pEC50 (A549; Homo sapiens, A549, A549) was > 7.00.
With `CN(C)C[C@H](O)c1cnc2c(cnn2-c2cccc(-c3nnc[nH]3)c2)c1` [Compound 25A] the pIC50 (15-PGDH/HPGD) was 6.00 to 7.00 and the pEC50 (A549; Homo sapiens, A549, A549) was ≤ 6.00.
With `CC1(OC[C@H](O)c2cnc3c(cnn3-c3ccc(C(=O)O)cc3)c2)CC1` [Compound 92A] the pIC50 (15-PGDH/HPGD) was > 7.00 and the pEC50 (A549; Homo sapiens, A549, A549) was ≤ 6.00.
For `O=C(O)c1ccc(-n2ncc3cc([C@@H](O)COC4CCC4)cnc32)cn1` [Compound 96B], the pIC50 (15-PGDH/HPGD) was > 7.00 and the pEC50 (A549; Homo sapiens, A549, A549) was 6.00 to 7.00.
`CC(C)C[C@@H](O)[C@@H](O)c1cnc2c(ccn2-c2cccc(-c3nnc[nH]3)c2)c1` [Compound 3D, (1S,2R)-4-methyl-1-[1-[3-(4H-1,2,4-triazol-3-yl)phenyl]pyrrolo[2,3-b]pyridin-5-yl]pentane-1,2-diol] was tested, and the pIC50 (15-PGDH/HPGD) was > 7.00 and the pEC50 (A549; A549) was > 7.00.
In the case of `CC(C)(C)OC[C@H](O)c1cnc2c(ccn2-c2cccc(-c3nnc[nH]3)c2)n1` [Compound 26A], the pIC50 (15-PGDH/HPGD) was > 7.00 and the pEC50 (A549; Homo sapiens, A549, A549) was 6.00 to 7.00.
For `NC(=O)c1ccc(-n2ncc3cc([C@H](O)COC4CCC4)cnc32)cc1` [Compound 81A], the pIC50 (15-PGDH/HPGD) was > 7.00 and the pEC50 (A549; Homo sapiens, A549, A549) was > 7.00.
`Cc1nn(-c2ccc(C(=O)O)cc2)c2ncc([C@H](O)COC3CCC3)cc12` [Compound 109B] was tested, and the pIC50 (15-PGDH/HPGD) was > 7.00 and the pEC50 (A549; Homo sapiens, A549, A549) was > 7.00.
In the case of `COC1([C@H](O)c2cnc3c(cnn3-c3cccc(-c4nnc[nH]4)c3)c2)CCC1` [Compound 65B], the pIC50 (15-PGDH/HPGD) was ≤ 6.00 and the pEC50 (A549; Homo sapiens, A549, A549) was ≤ 6.00.
For `CCCC(F)(F)[C@@H](O)c1cnc2c(ccn2-c2cccc(-c3nnc[nH]3)c2)c1` [Compound 4A], the pIC50 (15-PGDH/HPGD) was > 7.00 and the pEC50 (A549; Homo sapiens, A549, A549) was 6.00 to 7.00.
With `CCCCC(C)(O)c1cnc2c(ccn2-c2cc(Cl)cc(-c3nnc[nH]3)c2)c1` (centres unmarked) [Compound 15] the pIC50 (15-PGDH/HPGD) was 6.00 to 7.00 and the pEC50 (A549; Homo sapiens, A549, A549) was ≤ 6.00.
With `O[C@H](c1cnc2c(cnn2-c2ccc3nc(N4CCOCC4)nn3c2)c1)C1COC1` [Compound 64A] the pIC50 (15-PGDH/HPGD) was 6.00 to 7.00 and the pEC50 (A549; Homo sapiens, A549, A549) was 6.00 to 7.00.
`Cc1cc(-n2ncc3cc([C@H](O)COC4CCC4)cnc32)ccc1C(=O)O` [Compound 95B] was tested, and the pIC50 (15-PGDH/HPGD) was 6.00 to 7.00 and the pEC50 (A549; Homo sapiens, A549, A549) was ≤ 6.00.
`COCCNC(=O)c1ccc(-n2ncc3cc([C@H](O)COC4CCC4)cnc32)cc1` [Compound 118B] was tested, and the pIC50 (15-PGDH/HPGD) was 6.00 to 7.00 and the pEC50 (A549; Homo sapiens, A549, A549) was 6.00 to 7.00.
For `O=C(O)c1ccc(-n2ncc3cc([C@@H](O)COC4CCC4)cnc32)cc1F` [Compound 94A], the pIC50 (15-PGDH/HPGD) was > 7.00 and the pEC50 (A549; Homo sapiens, A549, A549) was > 7.00.
`CC1(OC[C@@H](O)c2cnc3c(cnn3-c3ccc(C(=O)O)cc3)c2)CCC1` [Compound 90B] was tested, and the pIC50 (15-PGDH/HPGD) was > 7.00 and the pEC50 (A549; Homo sapiens, A549, A549) was > 7.00.
`O=C(O)c1ccc(-n2ncc3cc([C@H](O)COCC4(C(F)(F)F)CC4)cnc32)cc1` [Compound 113B] was tested, and the pIC50 (15-PGDH/HPGD) was > 7.00 and the pEC50 (A549; Homo sapiens, A549, A549) was 6.00 to 7.00.

— patent US20260234139A1, “PGDH INHIBITORS AND METHODS OF MAKING AND USING” (Epirium Bio Inc., priority 2023, published 2026)
